In assay [1] the target is T1, recombinant human liver glycogen phosphorylase (Homo sapiens, UniProt P06737).
T1 construct: made in house; host or cells: Sf9 insect cells (crude homogenate, diluted, used as the enzyme solution)
T1 sequence (P06737 1-847): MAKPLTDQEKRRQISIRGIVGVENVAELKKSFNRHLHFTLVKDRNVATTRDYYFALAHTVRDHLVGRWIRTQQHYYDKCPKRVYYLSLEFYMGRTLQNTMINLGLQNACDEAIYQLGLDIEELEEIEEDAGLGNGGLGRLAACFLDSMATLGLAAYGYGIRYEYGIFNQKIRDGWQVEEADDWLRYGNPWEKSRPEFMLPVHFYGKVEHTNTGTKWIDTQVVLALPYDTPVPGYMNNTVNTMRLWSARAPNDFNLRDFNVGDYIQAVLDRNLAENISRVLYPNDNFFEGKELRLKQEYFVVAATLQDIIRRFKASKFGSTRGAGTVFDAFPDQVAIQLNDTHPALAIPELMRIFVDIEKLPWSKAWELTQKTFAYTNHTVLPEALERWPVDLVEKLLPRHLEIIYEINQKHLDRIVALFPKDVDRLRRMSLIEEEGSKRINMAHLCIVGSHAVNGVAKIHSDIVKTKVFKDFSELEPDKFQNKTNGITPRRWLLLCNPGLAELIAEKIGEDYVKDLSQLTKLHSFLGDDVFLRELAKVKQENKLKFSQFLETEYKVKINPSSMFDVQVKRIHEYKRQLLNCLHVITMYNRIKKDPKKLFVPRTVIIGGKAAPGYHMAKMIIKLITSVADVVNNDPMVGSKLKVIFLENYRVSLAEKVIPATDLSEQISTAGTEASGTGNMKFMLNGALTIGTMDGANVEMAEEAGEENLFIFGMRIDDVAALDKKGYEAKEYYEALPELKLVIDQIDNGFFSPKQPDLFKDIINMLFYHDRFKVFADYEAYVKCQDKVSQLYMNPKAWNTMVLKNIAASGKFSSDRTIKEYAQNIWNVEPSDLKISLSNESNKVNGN
The experiment in a line: Measuring liver glycogen phosphorylase activity (forward reaction system, NADPH absorbance at 340 nm). It counts as biochemical. The conditions noted are these: for IC50: enzyme inhibitory activity with respect to liver glycogen phosphorylase, class symbols. In outline:
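Sf9 homogenate expressing the enzyme, in pH 6.8 BES/EDTA, with glycogen and phosphate substrate plus glucose, coupled via phosphoglucomutase/G6PDH to NADPH formation. A340 change over 75 min at room temperature, blank-corrected; IC50 linearly interpolated between the two concentrations bracketing 50% inhibition versus 1% DMSO control.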

Another assay has as its system db/db mice. The experiment in a line: Measuring blood plasma glucose concentration in db/db mice (hypoglycemic effect). It counts as in vivo. Further details: key: ++: compounds exhibiting statistically significant hypoglycemic effect at a dose of 10 mg/kg or less; +: compounds exhibiting not significant but obvious hypoglycemic effect at a dose of 10 mg/kg. The conditions noted are these: for vivo (hypoglycemic effect in db/db mice): db/db mice fasted 4 h, oral administration, plasma glucose 1 and 3 hours after administration, dose 10 mg/kg or less, Dunnett test vs solvent. An outline of the steps:
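db/db mice aged 9-18 weeks, grouped 5 or 8 per group matched on plasma glucose, fasted 4 h, then dosed orally with compound or 0.5% methylcellulose vehicle. Plasma glucose measured 1 and 3 h post-dose; each timepoint compared against vehicle by Dunnett test.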

One may read the IC50 as the concentration at which inhibition is half-maximal.

Regarding `CN(C(=O)c1cc(NC(=O)c2cc(F)c(F)cc2Cl)[nH]n1)c1ccc(C(=O)O)cc1` [Example 4-2, 5-(2-chloro-4,5-difluoro-benzoylamino)-1H-pyrazole-3-carboxylic acid (4-carboxyphenyl)-methyl-amide], the IC50 in assay [1] was under 100 nM. Further, in the assay on db/db mice, the “vivo (hypoglycemic effect in db/db mice)” value is “++”.

With `Cc1ccccc1CNC(=O)c1cc(NC(=O)c2cc(F)c(F)cc2Cl)[nH]n1` [Example 3-32], in assay [1], the IC50 is under 100 nM. In addition, in the assay with db/db mice, the “vivo (hypoglycemic effect in db/db mice)” value is reported as “+”.

Take `COc1cccc(CNC(=O)c2cc(NC(=O)c3cc(F)c(F)cc3Cl)[nH]n2)c1` [Example 1-67]: in assay [1], the concentration for half-maximal inhibition (IC50) is under 100 nM. The “vivo (hypoglycemic effect in db/db mice)” value in the assay on db/db mice is on record as “+”.

As for `COc1ccc(CNC(=O)c2cc(NC(=O)c3cc(F)c(F)cc3Cl)[nH]n2)cn1.CS(=O)(=O)O` [Example 5-15], the half-inhibitory concentration (IC50) in assay [1] is under 100 nM. In addition, the “vivo (hypoglycemic effect in db/db mice)” value with db/db mice is “+”.

Take `O=C(NCc1ccc(-n2cccn2)nc1)c1cc(NC(=O)c2cc(F)c(F)cc2Cl)[nH]n1` [Example 1-137]: the IC50 in assay [1] is under 100 nM. In addition, the “vivo (hypoglycemic effect in db/db mice)” value with db/db mice is on record as “+”.

For the molecule `COc1ccnc(CNC(=O)c2cc(NC(=O)c3cc(F)c(F)cc3Cl)[nH]n2)c1OC` [Example 1-59], in assay [1], the half-inhibitory concentration (IC50) is under 100 nM. Moreover, the “vivo (hypoglycemic effect in db/db mice)” value in the assay with db/db mice is on record as “++”.

Turning to `O=C(O)c1cccc(CNC(=O)c2cc(NC(=O)c3cc(F)c(F)cc3Cl)[nH]n2)c1` [Example 3-39], the IC50 in assay [1] was under 100 nM. In addition, the “vivo (hypoglycemic effect in db/db mice)” value in the assay with db/db mice is listed as “+”.

Regarding `Cc1ccc(CNC(=O)c2cc(NC(=O)c3cc(F)c(F)cc3Cl)[nH]n2)cc1` [Example 1-69], the IC50 in assay [1] was under 100 nM. In the assay with db/db mice, the “vivo (hypoglycemic effect in db/db mice)” value is “+”.

With `O=C(NCc1cccnc1F)c1cc(NC(=O)c2cc(F)c(F)cc2Cl)[nH]n1` [Example 2-27], the concentration for half-maximal inhibition (IC50) in assay [1] is under 100 nM. Also, the “vivo (hypoglycemic effect in db/db mice)” value in the assay on db/db mice is “+”.

With `CC(OC(=O)OC1CCCCC1)OC(=O)c1ccc(N(C)C(=O)c2cc(NC(=O)c3cc(F)c(F)cc3Cl)[nH]n2)cc1` (centres unmarked) [Example 6-17], the inhibition at 0.1 µM in assay [1] (figure in brackets (100), read-out: IC50: % value given with (100)) is 9.8%. The “vivo (hypoglycemic effect)” value in the assay on db/db mice (db/db mice, blood plasma glucose, dose of 10 mg/kg or less) is “+”.

The values are drawn from patent publication US20070032529A1, “Pyrazole compounds and their use as antidiabetes agents” (Japan Tobacco Inc., priority 2005, published 2007).
